The series in a line: Viscosity by Brookfield DV-II viscometer. The note with it: 50 wt % product, spindle 34, 10 to 40° C.; compared to Na4 GLDA; data in FIG. 1. The series is classed as physicochemical. As for the experimental part:
After addition of the KOH (45% sol) and the NaOH (50% sol) solution the products were subjected to evaporation to isolate an alkalimetal salt of glutamic acid-N,N-diacetic acid product having a concentration of 50 wt %.
The viscosity of the alkalimetal salt of glutamic acid-N,N-diacetic acid products prepared in Examples 1a-e was determined using a Brookfield DV-II viscometer with a spindle 34 at a temperature of 10 to 40° C.

Results on two molecules are retold here after patent US8399705B2, “Alkali metal salt of glutamic acid N,N-diacetic acid, a process to prepare such salt, and the use thereof” (Akzo Nobel N.V., priority 2007, dated 2013).

For `O=C(O)CC[C@@H](C(=O)O)N(CC(=O)O)CC(=O)O.[K].[Na].[Na].[Na]` [Na3K GLDA, monopotassium trisodium glutamic acid-N,N-diacetic acid], the viscosity result is listed as “significantly lower viscosity”.

On to `O=C([O-])CC[C@@H](C(=O)[O-])N(CC(=O)[O-])CC(=O)[O-].[K+].[K+].[Na+].[Na+]` [Na2K2 GLDA], for which the viscosity result is “significantly lower viscosity”.
